Columns and labels:
[1] = Davalos et al. (2004); cited from earlier work
[2] = set-up: concentration or dose not given beside the values; details: Kikuzaki et al. (2002); cited from earlier work
[3] = concentration of Trolox solution with equivalent antioxidant capacity to a 1 mM concentration of the compound; cited from earlier work
[4] = ABTS radical scavenging assay; type: biochemical; details: Intasa-Chromadex analytical test report, 2006; gallic as positive-control
Experimental: Kikuzaki et al. (2002) previously published the DPPH radical-scavenging and increasing inhibition effects of ferulic, oryzanol (steryl-ferulate), BHT, α-tocopherol (Trolox) and gallic acid (27%<21%<29%<42%<76%). A TEAC test was defined as the concentration of Trolox solution with equivalent antioxidant capacity to a 1 mM concentration of the compound (Rice-Evans et al. 1996). Similar increasing values were found for α-tocopherol (Trolox), caffeic, ferulic and gallic acid (1.0<1.3<1.9<3.0). It also reflects the ability of hydrogen-donating antioxidants to scavenge the ABTS-radical). However, Davalos et al. (2004) used a different ORAC-FL (Oxygen radical absorbance capacity) test which described the μmol trolox equivalents per μmol of pure compound: BHA (synthetic), ferulic and protocatechuic (similar to gallic) with increasing values of 2.4, 4.5 and 6.7, respectively. This latter assay has been largely applied to assess free radical scavenging capacity of human plasma, proteins, DNA, pure antioxidant compounds and new antioxidants from plant and food extracts (Prior et al. 1999).

[5] = ingestion or topical applications; cited from earlier work

IC50 or 50% inhibition value, ABTS radical scavenging [4] | Compound | ORAC-FL [1] | DPPH radical-scavenging inhibition effect [2] | TEAC [3] | acute or chronic side effects [5]
 | COc1ccc(O)c(C(C)(C)C)c1 [BHA] | 2.4 μmol trolox equivalents per μmol of pure compound |  |  | 
 | Cc1cc(C(C)(C)C)c(O)c(C(C)(C)C)c1 [BHT] |  | 29% |  | 
 | O=C(O)/C=C/c1ccc(O)c(O)c1 [caffeic] |  |  | 1.3 | 
3.3 ppm | COc1cc(/C=C/C(=O)O)ccc1O [ferulic, ferulic acid] | 4.5 μmol trolox equivalents per μmol of pure compound | 27% | 1.9 | No acute or chronic side effects
1.5 ppm | O=C(O)c1cc(O)c(O)c(O)c1 [gallic, gallic acid] |  | 76% | 3.0 | 
 | O=C(O)c1ccc(O)c(O)c1 [protocatechuic] | 6.7 μmol trolox equivalents per μmol of pure compound |  |  | 
 | Cc1c(C)c2c(c(C)c1O)CC[C@@](C)(CCC[C@H](C)CCC[C@H](C)CCCC(C)C)O2 [α-tocopherol (Trolox), α-tocopherol] |  | 42% | 1.0 | 
 | oryzanol |  | 21% |  | 

— patent publication US20070184175A1, “CONTINUOUS PRODUCTION OF CEREAL FLOUR AND WHOLE-CEREAL FLOUR FOR GRAIN-BASED FOODS, USING A LOW-MOISTURE PRECOOKING” (priority 2005, published 2007)
